{"source": "patent US20030211589A1", "about": "“Short peptides from the b4 and b5 regions kinases which selectively modulate protein activity” (priority 2002, published 2003)", "key": {"[1]": {"tested_on": "Human Fetal lung fibroblasts (HFL-1)", "assay": "HFL-1 fibroblast cell proliferation (methylene blue staining)", "type": "cell-based", "conditions": "peptide 0-10 μM, 48 hours, vs control without peptide; FIG. 4", "method": "Human Fetal lung fibroblasts (HFL-1) were obtained from the American Type Culture Collection (Manassas, Va.).\nCulture medium was prepared from F-12K (Gibco), penicillin/streptomycin/glutamine (penicillin—100U/ml; streptomycin—100U/ml; glutamine—2 mM), 0.5% fetal calf serum and […] ascorbic acid. A suspension of HFL-1 cells at 2.22×10^5 cell/ml was prepared in the above described culture medium.\nA series of B4-5 peptide stock solution was prepared by diluting a […] solution of the B4-5 peptide in 100% DMSO, with phosphate buffered saline (PBS) containing 0.1% BSA. The concentration of B4-5 peptide in each stock solution was adjusted to […] the desired concentration of the B4-5 peptide in the assay mixture. Twenty μl of peptide stock solution were placed at the bottom of each well in a 96-well flat bottom tissue culture plate, six replications for each concentration. BSA solution containing 1% DMSO with no added peptide served as a control. 180 μl of the HFL-1 cell suspension were added to each well (40,000 cells per well). The cells were incubated with the peptide (final concentrations of 0-10μM), for 48 hours at 37° C. in a 5% CO2 humidified incubator. At the end of the incubation the cells were fixed with buffered formaline (200 μl/well) for 1 h at room temperature. […] The O.D. was read at 595 nm to determine the number of cells per well. […]"}, "[2]": {"tested_on": "fracture site on a rabbit ulna", "assay": "Rabbit ulnar osteotomy model of bone remodeling (histology)", "type": "in vivo, New Zealand White rabbits", "conditions": "peptide mixture 0.3 cm^3 applied locally to fractured area, 4 weeks, vs untreated osteotomy; FIG. 6", "method": "The rabbit ulnar osteotomy models described by Bouxsein et al., at the 45th Annual Meeting, Orthopedic Research Society, Anaheim, Calif. (1999), were employed to assess the ability of the B4-5 peptide K099B901 (ALK4-derived peptide) to accelerate bone remodeling.\nBilateral mid-ulnar osteotomies were made in the front limbs of male New Zealand White rabbits using an oscillating saw. The preparation of the peptide was as follows: 40 mg of peptide were dissolved in 200 μl of DMSO (Sigma) and 800 μl of double distilled water. The solution was mixed with 100 mg of methyl cellulose (Sigma) and 100 mg of carboxymethyl cellulose (Serva).\nThe K099B901 peptide mixture (0.3 cm^3) was locally applied to the fractured area. An untreated osteotomy served as a control. Radiographs of the ulna were taking weekly for 4 weeks. The rabbits were then sacrificed and the fractured areas were taken for bone histology. The bone tissue was fixated in 4% formaldehide and then soaked in 10% formic acid for decalcification. The decalcified tissue was imbedded in paraffin wax, serially sectioned at 5μ and stained with indigo-carmine."}, "[3]": {"tested_on": "HNK-1-positive neural crest cells from neural primordia explants", "assay": "Emigration of neural crest cells from neural primordia explants (HNK-1 immunostaining)", "type": "cell-based, quail", "conditions": "5 μM peptide, 24 hours, serum-free medium, compared to control; FIG. 5", "description": "The procedure for explants of neural primordia is described in greater detail in Sela-Donenfeld and Kalcheim (Development, 1999, in press), the teaching of which are incorporated herein by reference.\nThe trunk region of 16 somite-old quail embryos was separately sectioned at the level of the segmental plate plus the last 2 epithelial somite pairs. Neural primordia consisting of the neural tube and premigratory neural crest cells were isolated from adjacent tissues with 25% pancreatin in PBS, transferred to PBS supplemented with 5% newborn calf serum to stop enzymatic activity and washed in serum-free culture medium prior to explantation. The neural primordia were then explanted onto multi-well chamber slides that were pre-coated with fibronectin (50 μg/ml) for 1 hour. The neural primordia were cultured in 50 μl serum-free SFRI medium (Berganton, France) in the absence or presence of B4-5 peptide—K099B901, in a final concentration of 5 μM and incubated in a humid chamber for 24 hours. At the end of the incubation, the primordia were gently washed with PBS and fixed with Bouin's fluid, washed 3 times with PBS and immunostained with 50 μl of monoclonal antibodies against HNK-1 for 1 h at room temperature. Excess HNK-1 antibodies were washed 3 times with PBS. The samples were further incubated with 50 μl of a secondary fluorescent antibody, GAM-FITC for 1 h at room temperature. […]"}}, "note": "The star is where a group is joined. Stearoyl = CCCCCCCCCCCCCCCCCC(=O)*"}
{"substance": "K099B901: B4-5 peptide K099B901 (ALK4-derived peptide), SEQ ID NO. 30, FIG. 3 (Stearoyl-GDNKDNGTWT-NH2; SMILES CCCCCCCCCCCCCCCCCC(=O)NCC(=O)N[C@@H](CC(=O)O)C(=O)N[C@@H](CC(N)=O)C(=O)N[C@@H](CCCCN)C(=O)N[C@@H](CC(=O)O)C(=O)N[C@@H](CC(N)=O)C(=O)NCC(=O)N[C@H](C(=O)N[C@@H](Cc1c[nH]c2ccccc12)C(=O)N[C@H](C(N)=O)[C@@H](C)O)[C@@H](C)O)", "values": [{"measurement": "stimulation of cell proliferation of the HFL-1 cells", "setting": "[1]", "result": "exceeding 2 ×"}, {"measurement": "tissue formed at the fracture site (bone histology)", "setting": "[2]", "result": "a bone like bone-tissue was formed leading to a genuine regeneration"}, {"measurement": "outgrowth of HNK-1-positive neural crest cells from the explant", "setting": "[3]", "result": "remarkable outgrowth of HNK-1—positive neural crest cells from the explant"}]}
